Measured values published in the supplement of paper PMC9663587.

What was measured:
[1] = compound: CC(=O)O[C@H]1C(=O)[C@@]2(C)[C@H]([C@H](OC(=O)c3ccccc3)[C@]3(O)C[C@H](OC(=O)[C@H](O)[C@@H](NC(=O)c4ccccc4)c4ccccc4)C(C)=C1C3(C)C)[C@]1(OC(C)=O)CO[C@@H]1C[C@@H]2O [Paclitaxel]
[2] = compound: CC(C)NC[C@@H](C(=O)N1CCN(c2ncnc3c2[C@H](C)C[C@H]3O)CC1)c1ccc(Cl)cc1 [Ipatasertib/GDC0068]
[3] = compound: CCNC(=O)c1noc(-c2cc(C(C)C)c(O)cc2O)c1-c1ccc(CN2CCOCC2)cc1 [Luminespib/NVP-AUY922]
[4] = compound: CN(C)C/C=C/C(=O)Nc1ccc(O[C@@H]2CCC[C@@H](Nc3ncc(Cl)c(-c4c[nH]c5ccccc45)n3)C2)cc1 [BSJ-01-175]
[5] = compound: CN(C)CC[C@H](CSc1ccccc1)Nc1ccc(S(=O)(=O)NC(=O)c2ccc(N3CCN(Cc4ccccc4-c4ccc(Cl)cc4)CC3)cc2)cc1[N+](=O)[O-] [ABT-737]
[6] = compound: T1, CN1CC[C@H](c2c(O)cc(O)c3c(=O)cc(-c4ccccc4Cl)oc23)[C@H](O)C1 [Flavopiridol]
[7] = compound: COc1cccc2c1C(=O)c1c(O)c3c(c(O)c1C2=O)C[C@@](O)(C(=O)CO)C[C@@H]3O[C@H]1C[C@H](N)[C@H](O)[C@H](C)O1 [Doxorubicin]
[8] = compound: Cc1nc(-c2cn3c(n2)-c2ccc(-c4cnn(C(C)(C)C(N)=O)c4)cc2OCC3)n(C(C)C)n1 [Taselisib/GDC0032]
[9] = compound: O=C(c1cc(Cc2n[nH]c(=O)c3ccccc23)ccc1F)N1CCN(C(=O)C2CC2)CC1 [Olaparib/AZD2281]
[10] = compound: C=CC(=O)Nc1ccc(C(=O)Nc2[nH]nc3c2CN(C(=O)N[C@H](CN(C)C)c2ccccc2)C3(C)C)cc1 [YKL-5-124]; assay: GR value, 72 h; higher = faster growth (1 = untreated, <0 = killing);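 note: breast cancer and non-malignant breast epithelial lines, nine half-log doses, viable cells counted by Hoechst and LIVE/DEAD dye imaging versus time-zero plates and DMSO controls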
[11] = compound: CC(=O)c1c(C)c2cnc(Nc3ccc(N4CCN(CCOCCOCCOCCNC(=O)COc5cccc6c5C(=O)N(C5CCC(=O)NC5=O)C6=O)CC4)cn3)nc2n(C2CCCC2)c1=O [BSJ-03-123]; assay: as above
[12] = compound: CC(=O)c1c(C)c2cnc(Nc3ccc(N4CCNCC4)cn3)nc2n(C2CCCC2)c1=O; assay: as above
[13] = compound: CCN1CCN(Cc2ccc(Nc3ncc(F)c(-c4cc(F)c5nc(C)n(C(C)C)c5c4)n3)nc2)CC1; assay: as above
[14] = compound: CCc1cnn2c(NCc3ccc[n+]([O-])c3)cc(N3CCCC[C@H]3CCO)nc12; assay: as above
[15] = compound: CN(C)C(=O)c1cc2cnc(Nc3ccc(N4CCNCC4)cn3)nc2n1C1CCCC1 [LEE011/Ribociclib]; assay: as above
[16] = compound: CN(C)C/C=C/C(=O)Nc1ccc(C(=O)N2CCC[C@@H](Nc3ncc(Cl)c(-c4c[nH]c5ccccc45)n3)C2)cc1 [THZ531]; assay: as above
[17] = compound: T1, Flavopiridol; assay: as above
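Throughout, for GR50, 72 h: breast cancer and non-malignant breast epithelial cell lines, Deep Dye Drop or Dye Drop imaging, nine half-log doses, GR normalized to time-zero plates and DMSO-only controls.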

In the case of SUM52PE, the “GR50, 72 h” value [1] is reported as 0.00165 µM, the “GR50, 72 h” value [2] is reported as 6.8 µM and the “GR50, 72 h” value [3] is reported as 0.00584 µM. For the same cell line, the “GR50, 72 h” value [4] was 0.0947 µM, the “GR50, 72 h” value [5] was 9.12 µM and the “GR50, 72 h” value [6] was 0.234 µM. For the same cell line, the “GR50, 72 h” value [7] was 0.049 µM, the “GR50, 72 h” value [8] was 0.0267 µM and the “GR50, 72 h” value [9] was greater than 10 µM. It also gave a GR value ([10]; 0.001 µM) of 0.72 GR, a GR value ([10]; 0.003162 µM) of 0.654 GR and a GR value ([10]; 0.01 µM) of 0.573 GR. It also gave a GR value ([10]; 0.03162 µM) of 0.552 GR, a GR value ([10]; 0.1 µM) of 0.437 GR and a GR value ([10]; 0.3162 µM) of 0.391 GR. For the same cell line, the GR value ([10]; 1 µM) was 0.364 GR, the GR value ([10]; 3.162 µM) was 0.227 GR and the GR value ([10]; 10 µM) was 0.0112 GR. It also gave a GR value ([11]; 0.001 µM) of 1.02 GR, a GR value ([11]; 0.003162 µM) of 0.851 GR and a GR value ([11]; 0.01 µM) of 0.868 GR. The GR value ([11]; 0.03162 µM) was 0.883 GR, the GR value ([11]; 0.1 µM) was 0.862 GR and the GR value ([11]; 0.3162 µM) was 0.78 GR. For the same cell line, the GR value ([11]; 1 µM) was 0.657 GR, the GR value ([11]; 3.162 µM) was 0.634 GR and the GR value ([11]; 10 µM) was 0.228 GR. The GR value ([12]; 0.0003162 µM) was 1.1 GR, the GR value ([12]; 0.001 µM) was 1.06 GR and the GR value ([12]; 0.003162 µM) was 1.01 GR. The GR value ([12]; 0.01 µM) was 0.97 GR, the GR value ([12]; 0.03162 µM) was 0.863 GR and the GR value ([12]; 0.1 µM) was 0.695 GR. For the same cell line, the GR value ([12]; 0.3162 µM) was 0.607 GR, the GR value ([12]; 1 µM) was 0.475 GR and the GR value ([12]; 3.162 µM) was 0.348 GR. It also gave a GR value ([13]; 0.001 µM) of 0.991 GR, a GR value ([13]; 0.003162 µM) of 0.962 GR and a GR value ([13]; 0.01 µM) of 0.86 GR. The GR value ([13]; 0.03162 µM) was 0.766 GR, the GR value ([13]; 0.1 µM) was 0.619 GR and the GR value ([13]; 0.3162 µM) was 0.497 GR. It also gave a GR value ([13]; 1 µM) of 0.459 GR, a GR value ([13]; 3.162 µM) of 0.365 GR and a GR value ([13]; 10 µM) of 0.289 GR. The GR value ([14]; 0.0001 µM) was 1.08 GR, the GR value ([14]; 0.0003162 µM) was 1.14 GR and the GR value ([14]; 0.001 µM) was 1.01 GR. The GR value ([14]; 0.003162 µM) was 1.05 GR, the GR value ([14]; 0.01 µM) was 0.925 GR and the GR value ([14]; 0.03162 µM) was -0.0619 GR. The GR value ([14]; 0.1 µM) was -0.245 GR, the GR value ([14]; 0.3162 µM) was -0.322 GR and the GR value ([14]; 1 µM) was -0.175 GR. It also gave a GR value ([15]; 0.001 µM) of 0.991 GR, a GR value ([15]; 0.003162 µM) of 0.857 GR and a GR value ([15]; 0.01 µM) of 0.861 GR. It also gave a GR value ([15]; 0.03162 µM) of 0.86 GR, a GR value ([15]; 0.1 µM) of 0.822 GR and a GR value ([15]; 0.3162 µM) of 0.797 GR. The GR value ([15]; 1 µM) was 0.69 GR, the GR value ([15]; 3.162 µM) was 0.681 GR and the GR value ([15]; 10 µM) was 0.54 GR. The GR value ([16]; 0.0001 µM) was 1.05 GR, the GR value ([16]; 0.0003162 µM) was 0.984 GR and the GR value ([16]; 0.001 µM) was 0.937 GR. The GR value ([16]; 0.003162 µM) was 0.994 GR, the GR value ([16]; 0.01 µM) was 1.02 GR and the GR value ([16]; 0.03162 µM) was 0.978 GR. For the same cell line, the GR value ([16]; 0.1 µM) was 0.818 GR, the GR value ([16]; 0.3162 µM) was 0.186 GR and the GR value ([16]; 1 µM) was -0.226 GR. It also gave a GR value ([17]; 0.0001 µM) of 1.07 GR, a GR value ([17]; 0.0003162 µM) of 1.06 GR and a GR value ([17]; 0.001 µM) of 0.942 GR. The GR value ([17]; 0.003162 µM) was 0.915 GR, the GR value ([17]; 0.01 µM) was 1.02 GR and the GR value ([17]; 0.03162 µM) was 0.945 GR. The GR value ([17]; 0.1 µM) was 0.8 GR, the GR value ([17]; 0.3162 µM) was 0.357 GR and the GR value ([17]; 1 µM) was -0.26 GR.
